Experimental data published in ChEMBL document CHEMBL1949541, “Discovery of 7-arylsulfonyl-1,2,3,4, 4a,9a-hexahydro-benzo[4,5]furo[2,3-c]pyridines: identification of a potent and selective 5-HT₆ receptor antagonist showing activity in rat social recognition test” (Bioorg Med Chem Lett, 2012).

Tests used:
[1] = target: T1, 5-hydroxytryptamine receptor 6 (Homo sapiens, UniProt P50406); test: Displacement of [3H]LSD from human recombinant 5HT6 receptor
[2] = target: T1, 5-hydroxytryptamine receptor 6; test: Antagonist activity at human 5HT6 receptor expressed in human astrocytoma cells assessed as inhibition of cAMP production; format: functional, cell-based
[3] = target: 5-hydroxytryptamine receptor 6 (Rattus norvegicus, UniProt P31388); test: Displacement of [3H]LSD from rat recombinant 5HT6 receptor
[4] = tested on: Rattus norvegicus; test: (§1) Oral bioavailability in rat; format: ADME, organism-based; conditions: in vivo
[5] = tested on: Rattus norvegicus; test: AUC in po dosed rat; format: ADME, organism-based, Plasma; conditions: in vivo
[6] = as §1; format: ADME, organism-based; conditions: in vivo
[7] = Half life in human liver microsomes; format: ADME, Microsome
[8] = Half life in dog liver microsomes; format: ADME, Canis lupus familiaris, Microsome
[9] = Half life in rat liver microsomes; format: ADME, Microsome
[10] = Half life in mouse liver microsomes; format: ADME, Microsome

Chain of 5-hydroxytryptamine receptor 6 (Rattus norvegicus, UniProt P31388) (P31388 whole entry): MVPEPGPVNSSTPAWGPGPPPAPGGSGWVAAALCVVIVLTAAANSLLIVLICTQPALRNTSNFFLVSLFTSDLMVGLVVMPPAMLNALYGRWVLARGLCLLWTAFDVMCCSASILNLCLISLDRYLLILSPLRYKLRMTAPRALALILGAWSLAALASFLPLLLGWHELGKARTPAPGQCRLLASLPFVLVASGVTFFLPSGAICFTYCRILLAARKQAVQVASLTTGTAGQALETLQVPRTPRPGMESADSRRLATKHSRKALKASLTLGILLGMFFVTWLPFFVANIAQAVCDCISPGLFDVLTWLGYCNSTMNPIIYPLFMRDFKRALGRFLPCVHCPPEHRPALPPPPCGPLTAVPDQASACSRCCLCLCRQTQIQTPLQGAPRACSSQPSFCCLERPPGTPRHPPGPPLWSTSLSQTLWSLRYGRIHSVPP
T1 sequence (P50406 whole entry): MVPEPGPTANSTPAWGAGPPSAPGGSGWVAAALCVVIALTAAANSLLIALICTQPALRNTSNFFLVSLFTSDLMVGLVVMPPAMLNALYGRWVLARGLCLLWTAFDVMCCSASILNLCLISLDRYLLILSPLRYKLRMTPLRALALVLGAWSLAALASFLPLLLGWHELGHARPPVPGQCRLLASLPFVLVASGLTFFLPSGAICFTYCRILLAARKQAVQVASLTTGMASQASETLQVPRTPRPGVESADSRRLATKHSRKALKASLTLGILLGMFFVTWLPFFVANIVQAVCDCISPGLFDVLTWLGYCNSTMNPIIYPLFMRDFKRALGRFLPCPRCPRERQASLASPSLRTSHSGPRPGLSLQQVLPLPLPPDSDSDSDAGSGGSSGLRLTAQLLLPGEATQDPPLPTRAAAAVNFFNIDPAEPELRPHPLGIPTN

Row | Structure (SMILES) | Ki [1] [nM] | IC50 [2] [nM] | Ki [3] [nM] | further results
1 | O=S(=O)(c1cc(F)cc(Cl)c1)c1ccc2c(c1)O[C@H]1CNCC[C@@H]21 (single isomer, unassigned; enantiomer 2) | 11 | 63 | – | –
2 | O=S(=O)(c1cc(F)cc(F)c1)c1ccc2c(c1)O[C@H]1CNCC[C@@H]21 (single isomer, unassigned; enantiomer 1) | 166 | 1360 | 2180 | –
3 | CC(C)Oc1cccc(S(=O)(=O)c2ccc3c(c2)O[C@H]2CNCC[C@@H]32)c1.Cl (single isomer, unassigned; enantiomer 2) | 31 | – | – | F [4]: 26%; AUC [5]: 310 ng·h/mL
4 | O=S(=O)(c1cc(F)cc(Cl)c1)c1ccc2c(c1)O[C@H]1CNCC[C@@H]21 (single isomer, unassigned; enantiomer 1) | 68 | 790 | – | –
5 | O=S(=O)(c1cc(F)cc(F)c1)c1ccc2c(c1)O[C@H]1CNCC[C@@H]21 (single isomer, unassigned; enantiomer 2) | 28 | 96 | 174 | –
6 | Cl.O=S(=O)(c1ccccc1)c1ccc2c3c(oc2c1)CNCC3 | 2.9 | – | – | bioavailability [6]: 7%; half-life [7]: > 40 min; half-life [8]: 10 min; half-life [9]: < 5 min; half-life [10]: < 5 min
7 | CC(C)Oc1cc(F)cc(S(=O)(=O)c2ccc3c(c2)O[C@H]2CNCC[C@@H]32)c1 (single isomer, unassigned; enantiomer 1) | 49 | – | – | –

Continued, in another order:

Row | Ki [1] [nM] | IC50 [2] [nM] | Ki [3] [nM] | Structure (SMILES) | further results
8 | 385 | – | – | O=S(=O)(c1ccc(F)cc1)c1ccc2c(c1)O[C@H]1CNCC[C@@H]21 (racemic) | –
9 | 38 | 133 | 206 | O=S(=O)(c1ccc2c(c1)O[C@H]1CNCC[C@@H]21)c1ccccc1Cl (racemic) | –
10 | 2 | 6 | – | O=S(=O)(c1ccc2c(c1)O[C@H]1CNCC[C@@H]21)c1cccc(Cl)c1Cl (single isomer, unassigned; enantiomer 2) | –
11 | 85 | 281 | – | COc1cccc(S(=O)(=O)c2ccc3c(c2)O[C@H]2CNCC[C@@H]32)c1 (racemic) | –
12 | 83 | – | – | Cl.O=S(=O)(c1ccccc1)c1ccc2c(c1)O[C@H]1CNCC[C@@H]21 (racemic) | bioavailability [6]: 15%; half-life [7]: > 40 min; half-life [8]: > 40 min; half-life [9]: > 40 min; half-life [10]: > 40 min
13 | 85 | – | – | Cl.O=S(=O)(c1cccc(F)c1)c1ccc2c(c1)O[C@H]1CNCC[C@@H]21 (single isomer, unassigned; enantiomer 2) | F [4]: 2%; AUC [5]: 434 ng·h/mL
14 | 21 | 33 | 52 | O=S(=O)(c1cccc(F)c1)c1ccc2c(c1)O[C@H]1CNCC[C@@H]21 (racemic) | –
15 | 32 | 179 | 145 | O=S(=O)(c1ccc2c(c1)O[C@H]1CNCC[C@@H]21)c1ccccc1F (racemic) | –
16 | 48 | 357 | – | O=S(=O)(c1cccc(C(F)(F)F)c1)c1ccc2c(c1)O[C@H]1CNCC[C@@H]21 (racemic) | –
